Tested on: H3K9me3 occupancy in promoter regions
Assay: H3K9me3-ChIP sequencing of striatal tissue of YAC128 mice
Format: in vivo, mouse
Method: ChIP for H3K9me3 binding to DNA was performed using a CHIP assay kit (Santa Cruz, Dallas, TX) as described previously[21]^,[28]. Striatal tissues from WT, vehicle treated YAC128, and APQ-treated YAC128 mice were crossed-linked with 1% formaldehyde for 20 min at room temperature. Lysates were sonicated for 30 s six times using a Bioruptor (Diagenode Inc., Denville, NJ). After centrifugation, the supernatant was diluted in CHIP dilution buffer and incubated overnight at 4 °C with anti-H3K9me3 antibody. Immune complexes were recovered by the addition of 60 µl of salmon sperm DNA/protein A agarose-50% slurry and incubation at 4 °C for 2 h with rotation. Beads were pelleted and washed with low and high salt buffer followed by LiCl buffer (x3). Immune complexes were eluted by incubation with 500 µl of fresh elution buffer (1% SDS, 0.1 M NaHCO3) and 20 µl of 5 M NaCl. DNA was cleaned by the addition of 500 mM EDTA, 1 M Tris, and proteinase K at 66 °C for 4 h. The DNA solution was extracted with a phenol/chloroform/isoamyl alcohol mixture to remove protein contaminants, followed by precipitation with 100% ethanol. After precipitation, the pellet was washed with 70% ethanol and dissolved in 20 µl DW.
The Model-based Analysis of ChIP-Seq algorithm (MACS; v. 1.4.2) was used to identify regions of H3K9me3 enrichment with the default parameters. The peaks that pass a Poisson p values threshold of 0.1 were used for further analyses[28]^,[42]. In order to obtain reliable regions of enrichment, the regions detected in more than two samples were selected and aligned to define the consensus regions using DiffBind R package (v. 2.4.8)[43]. The reads in the consensus regions were counted and DESeq2 was applied to identify DMRs[44]. The DMRs were defined as p values of ≤.05 and only DMRs in promoter region (≤3 K from transcription start site) were selected.
Among the read peaks, a total of H3K9me3-enriched 71735 sites were commonly detected using MACS in WT, vehicle-treated YAC128, and APQ-treated YAC128 mice (using DiffBind R package). The reads were re-counted in the 71,735 sites (using DESeq2) and the H3K9me3-enriched sites in promoter region (≤3 K), with p values ≤.01 were selected. Then the H3K9me3-enriched sites with 1.5-fold higher in vehicle-treated YAC128 compared to WT and 1.5-fold lower in vehicle-treated YAC128 compared to APQ-treated YAC128 were finally selected.

In the case of `C=CCOc1cccc2nc(N3CCCC3)ccc12` [APQ, 5-allyloxy-2-(pyrrolidin-1-yl)quinoline], the “number of targets with 1.5-fold decrease of H3K9me3 occupancy” value (APQ-treated vs vehicle-treated YAC128 mice) is reported as 7060, the “H3K9me3 occupancy in the promoter region (–1 k to –3 kb)” value (APQ-treated vs vehicle-treated YAC128 mice, pie graph analysis) is reported as “reduced” and the “Fold(YACEi/YAC) H3K9me3 ChIP occupancy” value (Gripap1, Promoter (1-2kb), chrX_7787762_7788457, APQ-treated YAC vs YAC mice striatum) is reported as -2.38. For the same compound, the “Fold(YACEi/YAC)” value (H3K9me3 ChIP peak chr1_71652484_71652752, Apol7d, Promoter (<=1kb)) was -3.31, the “Fold(YACEi/YAC)” value (H3K9me3 ChIP peak chr1_131908530_131908816, Nucks1, Promoter (1-2kb)) was -4.01 and the “Fold(YACEi/YAC)” value (H3K9me3 ChIP peak chr1_153487828_153488249, Dhx9, Promoter (<=1kb)) was -2.43. The “Fold(YACEi/YAC)” value (H3K9me3 ChIP peak chr2_5015774_5016013, Mcm10, Promoter (2-3kb)) was -3.52, the “Fold(YACEi/YAC)” value (H3K9me3 ChIP peak chr3_35666243_35666969, Gm6639, Promoter (<=1kb)) was -3.37 and the “Fold(YACEi/YAC)” value (H3K9me3 ChIP peak chr3_38487666_38488045, Ankrd50, Promoter (2-3kb)) was -2.49. For the same compound, the “Fold(YACEi/YAC)” value (H3K9me3 ChIP peak chr3_81977204_81977533, Tdo2, Promoter (1-2kb)) was -3.71, the “Fold(YACEi/YAC)” value (H3K9me3 ChIP peak chr3_92487863_92488097, Sprr1a, Promoter (1-2kb)) was -3.63 and the “Fold(YACEi/YAC)” value (H3K9me3 ChIP peak chr3_101112649_101113010, Ptgfrn, Promoter (2-3kb)) was -3.89. For the same compound, the “Fold(YACEi/YAC)” value (H3K9me3 ChIP peak chr4_3653408_3653656, 2210414B05Rik, Promoter (2-3kb)) was -3.07, the “Fold(YACEi/YAC)” value (H3K9me3 ChIP peak chr4_55418287_55418885, Gm12505, Promoter (<=1kb)) was -2.83 and the “Fold(YACEi/YAC)” value (H3K9me3 ChIP peak chr4_73631010_73633171, Gm11236, Promoter (2-3kb)) was -3.46. The “Fold(YACEi/YAC)” value (H3K9me3 ChIP peak chr4_96141001_96141325, Cyp2j12, Promoter (<=1kb)) was -3.49, the “Fold(YACEi/YAC)” value (H3K9me3 ChIP peak chr5_147954155_147954429, Mtus2, Promoter (2-3kb)) was -3.24 and the “Fold(YACEi/YAC)” value (H3K9me3 ChIP peak chr6_8194240_8194734, Col28a1, Promoter (1-2kb)) was -2.03. For the same compound, the “Fold(YACEi/YAC)” value (H3K9me3 ChIP peak chr6_40902902_40903167, Prss58, Promoter (2-3kb)) was -3.27, the “Fold(YACEi/YAC)” value (H3K9me3 ChIP peak chr6_52209895_52210445, Hoxa6, Promoter (1-2kb)) was -2.02 and the “Fold(YACEi/YAC)” value (H3K9me3 ChIP peak chr6_57158878_57159171, Vmn1r12, Promoter (<=1kb)) was -3.18. The “Fold(YACEi/YAC)” value (H3K9me3 ChIP peak chr6_82941890_82942092, Sema4f, Promoter (2-3kb)) was -3.56, the “Fold(YACEi/YAC)” value (H3K9me3 ChIP peak chr6_88462374_88462646, Ruvbl1, Promoter (2-3kb)) was -3.04 and the “Fold(YACEi/YAC)” value (H3K9me3 ChIP peak chr6_116583898_116584203, Olfr215, Promoter (<=1kb)) was -2.33. For the same compound, the “Fold(YACEi/YAC)” value (H3K9me3 ChIP peak chr7_20869153_20870151, Vmn1r116, Promoter (2-3kb)) was -3.02, the “Fold(YACEi/YAC)” value (H3K9me3 ChIP peak chr7_28539372_28539811, Sycn, Promoter (1-2kb)) was -2.21 and the “Fold(YACEi/YAC)” value (H3K9me3 ChIP peak chr7_30914737_30915034, Mag, Promoter (<=1kb)) was -2.46. For the same compound, the “Fold(YACEi/YAC)” value (H3K9me3 ChIP peak chr7_106081077_106081480, Gm8979, Promoter (1-2kb)) was -3.34, the “Fold(YACEi/YAC)” value (H3K9me3 ChIP peak chr7_108053741_108053948, Olfr479, Promoter (1-2kb)) was -2.28 and the “Fold(YACEi/YAC)” value (H3K9me3 ChIP peak chr7_140154755_140155139, Sprn, Promoter (<=1kb)) was -2.42. For the same compound, the “Fold(YACEi/YAC)” value (H3K9me3 ChIP peak chr8_67493810_67494076, Nat2, Promoter (<=1kb)) was -2.63, the “Fold(YACEi/YAC)” value (H3K9me3 ChIP peak chr9_39238856_39239153, Olfr1537, Promoter (<=1kb)) was -2.72 and the “Fold(YACEi/YAC)” value (H3K9me3 ChIP peak chr10_75351156_75351507, Gm5779, Promoter (<=1kb)) was -3.41. The “Fold(YACEi/YAC)” value (H3K9me3 ChIP peak chr10_78963256_78963630, Olfr1353, Promoter (<=1kb)) was -2.79, the “Fold(YACEi/YAC)” value (H3K9me3 ChIP peak chr10_85919134_85919418, Prdm4, Promoter (1-2kb)) was -2.28 and the “Fold(YACEi/YAC)” value (H3K9me3 ChIP peak chr10_130212472_130212863, Olfr827, Promoter (1-2kb)) was -3.69. For the same compound, the “Fold(YACEi/YAC)” value (H3K9me3 ChIP peak chr11_6231887_6232152, Npc1l1, Promoter (1-2kb)) was -3.31, the “Fold(YACEi/YAC)” value (H3K9me3 ChIP peak chr11_70351943_70352224, Alox15, Promoter (<=1kb)) was -2.33 and the “Fold(YACEi/YAC)” value (H3K9me3 ChIP peak chr14_7570803_7571731, Gm3558, Promoter (2-3kb)) was -3.02. The “Fold(YACEi/YAC)” value (H3K9me3 ChIP peak chr14_50785599_50785931, Ttc5, Promoter (<=1kb)) was -3.3, the “Fold(YACEi/YAC)” value (H3K9me3 ChIP peak chr14_51147689_51148262, Rnase1, Promoter (<=1kb)) was -2.5 and the “Fold(YACEi/YAC)” value (H3K9me3 ChIP peak chr14_67860151_67860425, Mir6539, Promoter (<=1kb)) was -2.31. The “Fold(YACEi/YAC)” value (H3K9me3 ChIP peak chr14_74972279_74972456, Gm4278, Promoter (2-3kb)) was -3.57, the “Fold(YACEi/YAC)” value (H3K9me3 ChIP peak chr16_17917614_17917958, Gsc2, Promoter (2-3kb)) was -3.59 and the “Fold(YACEi/YAC)” value (H3K9me3 ChIP peak chr17_18913933_18914613, Vmn2r97, Promoter (<=1kb)) was -3.35. The “Fold(YACEi/YAC)” value (H3K9me3 ChIP peak chr17_33553505_33553673, Myo1f, Promoter (2-3kb)) was -3.41, the “Fold(YACEi/YAC)” value (H3K9me3 ChIP peak chr17_37114518_37114958, Olfr92, Promoter (2-3kb)) was -2.4 and the “Fold(YACEi/YAC)” value (H3K9me3 ChIP peak chr17_37485182_37485483, H2-M2, Promoter (1-2kb)) was -3.71. For the same compound, the “Fold(YACEi/YAC)” value (H3K9me3 ChIP peak chr17_47927455_47927829, Foxp4, Promoter (2-3kb)) was -2.83, the “Fold(YACEi/YAC)” value (H3K9me3 ChIP peak chr19_24902268_24902717, Foxd4, Promoter (<=1kb)) was -2.16 and the “Fold(YACEi/YAC)” value (H3K9me3 ChIP peak chrX_5469564_5470151, Mycs, Promoter (<=1kb)) was -2.41. For the same compound, the “Fold(YACEi/YAC)” value (H3K9me3 ChIP peak chrX_6399655_6400248, Shroom4, Promoter (<=1kb)) was -2.29, the “Fold(YACEi/YAC)” value (H3K9me3 ChIP peak chrX_7571434_7571820, Flicr, Promoter (1-2kb)) was -4.01 and the “Fold(YACEi/YAC)” value (H3K9me3 ChIP peak chrX_10118097_10118554, Srpx, Promoter (<=1kb)) was -2.46. The “Fold(YACEi/YAC)” value (H3K9me3 ChIP peak chrX_10714202_10714657, Mid1ip1, Promoter (2-3kb)) was -2.68.

Reference: paper PMC8008885 (Journal of Enzyme Inhibition and Medicinal Chemistry, 2021)
